According to ChEMBL document CHEMBL2321741, “Discovery and optimization of potent broad-spectrum arenavirus inhibitors derived from benzimidazole” (Bioorg Med Chem Lett, 2013):
The source made the active and inactive calls. No cut-off for these calls is given here.

Key:
Lassa virus [1] = test: Antiviral activity against Lassa virus pseudovirions infected in HEK293T/17 cells after 72 hrs by luciferase reporter gene assay; type: functional, organism-based; settings: Mammarenavirus lassaense, HEK-293T
Sabia virus = test: Antiviral activity against Sabia virus pseudovirions infected in HEK293T/17 cells after 72 hrs by luciferase reporter gene assay; type: functional, cell-based; settings: HEK-293T
Machupo mammarenavirus = test: Antiviral activity against Machupo virus pseudovirions infected in HEK293T/17 cells after 72 hrs by luciferase reporter gene assay; type: functional, cell-based; settings: Mammarenavirus machupoense, HEK-293T
Junin virus = test: Antiviral activity against Junin virus pseudovirions infected in HEK293T/17 cells after 72 hrs by luciferase reporter gene assay; type: functional, organism-based; settings: Mammarenavirus juninense, HEK-293T
Guanarito virus = test: Antiviral activity against Guanarito virus pseudovirions infected in HEK293T/17 cells after 72 hrs by luciferase reporter gene assay; type: functional, cell-based; settings: Mammarenavirus guanaritoense, HEK-293T
Lassa virus [2] = test: Antiviral activity against Lassa virus pseudovirions infected in HEK293T/17 cells at 50 uM after 72 hrs by luciferase reporter gene assay; type: functional, organism-based; settings: Mammarenavirus lassaense, HEK-293T
Lassa virus [3] = test: Antiviral activity against Lassa virus infected in guinea pig strain 13 assessed as host survival rate at 80 mg/kg/day, ip administered at 1 hr prior to infection for 14 days relative to control; type: functional, Mammarenavirus lassaense; settings: route intraperitoneal
Lassa virus [4] = test: Antiviral activity against Lassa virus infected in guinea pig strain 13 assessed as reduction in viral titre in plasma at 25 mg/kg/day, ip administered at 1 hr prior to infection for 14 days relative to control; type: functional, Mammarenavirus lassaense; settings: route intraperitoneal
Lassa virus [5] = test: Antiviral activity against Lassa virus infected in guinea pig strain 13 assessed as host survival rate at 25 mg/kg/day, ip administered at 1 hr prior to infection for 14 days relative to control; type: functional, Mammarenavirus lassaense; settings: route intraperitoneal

Row | Structure (SMILES) | EC50 (Lassa virus [1]) [nM] | other results
1 | CCCCc1ccc(CNc2ccc3c(c2)ncn3-c2ccc(OC)cc2)cc1 | 1.5 | –
2 | COc1ccc(-n2cnc3cc(NCc4ccccc4O)ccc32)cc1 | 310 | –
3 | COc1ccc(-n2cnc3cc(N(Cc4ccc(C(C)C)cc4)S(=O)(=O)c4ccc(C)cc4)ccc32)cc1 | 110 | EC50 (Sabia virus): 510 nM; EC50 (Machupo mammarenavirus): 40 nM; EC50 (Junin virus): 16 nM
4 | CC(C)c1ccc(CNc2ccc3c(c2)ncn3-c2ccccc2)cc1 | 5.2 | –
5 | COc1ccc(CNc2ccc3c(c2)ncn3-c2ccc(OC)cc2)cc1 | 11 | EC50 (Sabia virus): 110 nM; EC50 (Machupo mammarenavirus): 45 nM; EC50 (Junin virus): 7.7 nM; EC50 (Guanarito virus): 5.6 nM
6 | COc1ccc(-n2cnc3cc(NCc4ccc(CN5CCN(C)CC5)cc4)ccc32)cc1 | 16000 | –
7 | CC(C)c1ccc(CNc2ccc3c(c2)ncn3-c2ccc(Cc3ccccc3)cc2)cc1 | 120 | –
8 | CC(C)c1ccc(CNc2ccc3c(c2)ncn3-c2ccc(OCCc3ccccc3)cc2)cc1 | 43 | –
9 | COc1ccc(-n2cnc3cc(NCc4ccc(OC(C)(C)C)cc4)ccc32)cc1 | 5.2 | –
10 | CC(C)c1ccc(CNc2ccc3c(c2)ncn3-c2ccc(C(C)(C)C)cc2)cc1 | 4 | –
11 | COc1ccc(-n2cnc3cc(N(C)Cc4ccc(C(C)C)cc4)ccc32)cc1 | 57 | –
12 | CCOc1ccc(-n2cnc3cc(NCc4ccc(C)cn4)ccc32)cc1 | 350 | –
13 | COc1ccc(-n2cnc3cc(NC(=O)c4ccc(C)cc4)ccc32)cc1 | > 50000 | –
14 | CC(C)c1ccc(CNc2ccc3c(c2)ncn3-c2ccc(Oc3ccc4ccccc4c3)cc2)cc1 | 540 | –
15 | CC(C)c1ccc(CNc2ccc3ncn(-c4ccc(OC(C)(C)C)cc4)c3c2)cc1 | 180 | –
16 | COc1ccc(-n2cnc3cc(NCc4ccc(OC)c(OC)c4)ccc32)cc1 | 700 | –
17 | COc1ccc(-n2cnc3cc(NCc4cccc(OC)c4)ccc32)cc1 | 35 | –
18 | CCCCOc1ccc(CNc2ccc3c(c2)ncn3-c2ccc(OC)cc2)cc1 | 6 | –
19 | CNc1ccc2c(c1)ncn2-c1ccc(OC)cc1 | – | Activity (Lassa virus [2]): inactive
20 | COc1ccc(-n2cnc3cc(NCc4ccc(CN(C)C)cc4)ccc32)cc1 | 270 | –
21 | CCc1ccc(CNc2ccc3c(c2)ncn3-c2ccc(OC)nc2)cc1 | 32 | –
22 | CCc1ccc(-n2cnc3cc(NCc4ccc(C(C)C)cc4)ccc32)cc1 | 1.9 | –
23 | CCOc1ccc(-n2cnc3cc(CNc4ccc(CC)cc4)ccc32)cc1 | 11 | EC50 (Sabia virus): 43 nM; EC50 (Machupo mammarenavirus): 12 nM; EC50 (Junin virus): 5 nM
24 | COc1ccc(-n2cnc3cc(NCc4ccc(CN5CCOCC5)cc4)ccc32)cc1 | 790 | –
25 | CCc1ccc(CNc2ccc3c(c2)ncn3-c2ccc(OC)cn2)cc1 | 5.8 | –
26 | CCCNc1ccc2c(c1)ncn2-c1ccc(OC)cc1 | – | Activity (Lassa virus [2]): inactive

Row | Structure (SMILES) | EC50 (Lassa virus [1]) [nM] | other results
27 | COc1ccc(-n2cnc3cc(NCc4ccc(CN5CCCCC5)cc4)ccc32)cc1 | 1400 | –
28 | CCOc1ccc(-n2cnc3cc(NCc4cnc(CC)nc4)ccc32)cc1 | 450 | –
29 | COc1ccc(-n2cnc3cc(NCc4ccc(Oc5ccccc5)cc4)ccc32)cc1 | 380 | –
30 | COc1ccc(-n2cnc3cc(NCc4ccc(Cc5ccccc5)cc4)ccc32)cc1 | 46 | –
31 | CCCCOc1ccc(-n2cnc3cc(NCc4ccc(C(C)C)cc4)ccc32)cc1 | 5.6 | –
32 | CCc1ccc(CNc2ccc3c(c2)ncn3-c2ccc(OC)cc2)cc1 | 1.2 | –
33 | COc1ccc(-n2cnc3cc(NCc4cccc5ccccc45)ccc32)cc1 | 69 | –
34 | CC(C)c1ccc(CNc2ccc3c(c2)ncn3-c2ccc(Oc3ccccc3)cc2)cc1 | 130 | –
35 | CCc1ccc(CNc2ccc3c(c2)ncn3-c2ccc(OC)nn2)cc1 | 81 | –
36 | CCCCc1ccc(-n2cnc3cc(NCc4ccc(C(C)C)cc4)ccc32)cc1 | 4.4 | –
37 | CCOc1ccc(-n2cnc3cc(NCc4ccc(C)nc4)ccc32)cc1 | 240 | –
38 | COc1ccc(-n2cnc3cc(NCc4ccc(OCCN(C)C)cc4)ccc32)cc1 | 3300 | –
39 | COc1ccc(-n2cnc3cc(NCc4ccc(C(C)(C)C)cc4)ccc32)cc1 | 1.1 | –
40 | Cc1ccc(CNc2ccc3c(c2)ncn3C2CCCCC2)cc1 | 320 | –
41 | COc1ccc(-n2cnc3cc(NCc4cccc(OC)c4OC)ccc32)cc1 | 160 | –
42 | CCOc1ccc(CNc2ccc3c(c2)ncn3-c2ccc(OC)cc2)cc1 | 4 | –
43 | NC(=O)c1ncn([C@@H]2O[C@H](CO)[C@@H](O)[C@H]2O)n1 [RIBAVIRIN] | – | Activity (Lassa virus [3]): 0%
44 | CC(C)c1ccc(CNc2ccc3c(c2)ncn3-c2ccc(OC(C)(C)C)cc2)cc1 | 8.6 | –
45 | COc1ccc(-n2cnc3cc(NCc4ccc(Cl)cc4)ccc32)cc1 | 47 | –
46 | COc1ccc(-n2cnc3cc(N(Cc4ccc(C(C)C)cc4)C(C)=O)ccc32)cc1 | 380 | –
47 | COc1ccc(-n2cnc3cc(NCc4ccco4)ccc32)cc1 | 1200 | –
48 | COc1ccc(-n2cnc3cc(NCc4ccccc4OC)ccc32)cc1 | 460 | –
49 | CCOc1ccc(-n2cnc3cc(NCc4ccc(CC(=O)O)cc4)ccc32)cc1 | 1300 | –
50 | CCc1ccc(CNc2ccc3c(c2)ncn3-c2cnc(OC)nc2)cc1 | 450 | –
51 | COc1ccc(-n2cnc3cc(NCc4ccc(C(C)C)cc4)ccc32)cc1 | 1.4 | EC50 (Sabia virus): 21 nM; EC50 (Machupo mammarenavirus): 3.1 nM; fold change (FC) (Lassa virus [4]): 2; EC50 (Junin virus): 0.62 nM; EC50 (Guanarito virus): 0.44 nM; Activity (Lassa virus [5]): 63%
